Assay results published in patent publication US9751851B2, “Molecules and compositions that inhibit gram negative bacteria and their uses” (THE TRUSTEES OF PRINCETON UNIVERSITY, priority 2013, dated 2017).

These compounds were tested on wild-type P. aeruginosa PA14 (assay: microbe, parasite or virus in culture). Settings: Pseudomonas aeruginosa, PA14, 17 h, read-out: Efficacy (%), Table 1; reduction of pyocyanin vs WT P. aeruginosa PA14: 0% = WT level, 100% = background medium, negative = agonist.
Format: cell-based
Protocol: Methods. The oxidized form of pyocyanin imparts a green color to P. aeruginosa cultures, making the production of pyocyanin convenient to monitor by UV/Vis absorbance. Overnight P. aeruginosa cultures were subcultured into 5 mL fresh medium at 1:1000 dilution. Synthetic compounds were assayed at 100 μM for end point assays and at concentrations ranging from 200 nM to 200 μM for titrations following 17 hr of aerobic growth with shaking at 37° C. Cells were separated from culture fluids via centrifugation at 13,000 rpm for 15 min. Culture fluids were passed through 0.22 μm syringe driven filters (Millipore). Cell-free culture fluids were analyzed for pyocyanin using wavelength scans on a Beckman Coulter DU-800 spectrophotometer from 200 nm to 800 nm 695 nm was chosen for graphical representation. Titration data were fit with a variable-slope sigmoidal dose-response curve using GraphPad Prism to determine the IC50 values.
The compounds of the first library were assayed in wild-type (WT) P. aeruginosa PA14. Pyocyanin was used as a read-out for quorum sensing activity based on its absorbance at 695 nm. The efficacy of the compounds at reducing pyocyanin levels was calculated with respect to WT levels of pyocyanin, where WT levels of pyocyanin would lead to a 0% efficacy, and an absorbance equal to the background medium would lead to a 100% efficacy. Agonists that increase pyocyanin production have negative efficacy values.
`CCCCCCCCCC(=O)CC(=O)Nc1ccccn1` [S1, 3OC12-2-aminopyridine] showed an inhibition at 100 µM of 44 ± 13%.
In the case of `CCCCCCCCCC(=O)CC(=O)Nc1cccnc1` [S2, 3OC12-3-aminopyridine], the inhibition at 100 µM is reported as 10 ± 9%.
In the case of `CCCCCCCCCC(=O)CC(=O)Nc1ccncn1` [S3, 3OC12-4-aminopyrimidine], the inhibition at 100 µM is reported as 64 ± 0.8%.
Work on `CCCCCCCCCC(=O)CC(=O)Nc1cnccn1` [S4, 3OC12-2-aminopyrazine] yielded an inhibition at 100 µM of 21 ± 13%.
`CCCCCCCCCC(=O)CC(=O)Nc1ncccn1` [S5, 3OC12-2-aminopyrimidine] was tested, and the inhibition at 100 µM was -0.51 ± 4%.
Work on `CCCCCCCCCCCC(=O)Nc1ccccn1` [S6, C12-2-aminopyridine] yielded an inhibition at 100 µM of 55 ± 3%.
`CCCCCCCCCCCC(=O)Nc1cccnc1` [S7, C12-3-aminopyridine] was tested, and the inhibition at 100 µM was 34 ± 3%.
Work on `CCCCCCCCCCCC(=O)Nc1ccncc1` [S8, C12-4-aminopyridine] yielded an inhibition at 100 µM of 28 ± 11%.
`CCCCCCCCCCCC(=O)Nc1ccncn1` [S9, C12-4-aminopyrimidine] was tested, and the inhibition at 100 µM was 55 ± 8%.
`CCCCCCCCCCCC(=O)Nc1cnccn1` [S10, C12-2-aminopyrazine] showed an inhibition at 100 µM of -38 ± 3%.
Compound `CCCCCCCCCCCC(=O)Nc1ncccn1` [S11, C12-2-aminopyrimidine] has an inhibition at 100 µM of 23 ± 3%.

Same assay, conditions: Pseudomonas aeruginosa, PA14, 17 h, read-out: Efficacy (%), Table 2; reduction of pyocyanin vs WT P. aeruginosa PA14: 0% = WT level, 100% = background medium, negative = agonist
In the case of `CCCCCCCCCCCC(=O)Nc1ccnc(C)c1` [S12, C12-4-amino-2-methylpyridine], the inhibition at 100 µM is reported as -19 ± 3%.
In the case of `CCCCCCCCCCCC(=O)Nc1cc(C)nc2ccccc12` [S13, C12-4-amino-2-methylquinoline], the inhibition at 100 µM is reported as -24 ± 2%.
With `CCCCCCCCCCCC(=O)Nc1ccncc1C(F)(F)F` [S14, C12-4-amino-3-trifluoromethylpyridine] the inhibition at 100 µM was -17 ± 2%.
`CCCCCCCCCCCC(=O)Nc1ccnc(OC)c1` [S15, C12-4-amino-2-methoxypyridine] was tested, and the inhibition at 100 µM was -5.1 ± 1%.
Work on `CCCCCCCCCC(=O)CC(=O)Nc1ccnc(OC)c1` [S16, 3OC12-4-amino-2-methoxypyridine] yielded an inhibition at 100 µM of 24 ± 1%.
`CCCCCCCCCCCC(=O)Nc1ccnc(Br)c1` [S17, C12-4-amino-2-bromopyridine] gave an inhibition at 100 µM of 34 ± 5%.
`CCCCCCCCCC(=O)CC(=O)Nc1ccnc(F)c1` [S18, 3OC12-4-amino-2-fluoropyridine] showed an inhibition at 100 µM of -8.5 ± 3%.
Compound `CCCCCCCCCCCC(=O)Nc1c(F)c(F)nc(F)c1F` [S19, C12-4-amino-2,3,5,6-tetrafluoropyridine] has an inhibition at 100 µM of -12 ± 3%.
`CCCCCCCCCCCC(=O)Nc1ccnc(C(F)(F)F)c1` [S20, C12-4-amino-2-trifluoromethylpyridine] gave an inhibition at 100 µM of 27 ± 3%.
For `CCCCCCCCCCCCNC(=O)c1ccncc1` [S21, C12-isonicotinic amide], the inhibition at 100 µM was 13 ± 3%.
`CCCCCCCCCCCC(=O)NCc1ccncc1` [S22, C12-4-(aminomethyl)pyridine] showed an inhibition at 100 µM of 7.7 ± 5%.
`CCCCCCCCCCCC(=O)OCc1ccncc1` [S23, C12-4-(hydroxymethyl)pyridine] was tested, and the inhibition at 100 µM was -15 ± 4%.
For `CCCCCCCCCCCC(=O)N1CCN(c2ccncc2)CC1` [S24, C12-4-(piperazine)pyridine], the inhibition at 100 µM was -42 ± 2%.
For `CCCCCCCCCCCC(=O)Nc1ccc2[nH]ccc2c1` [S25, C12-5-aminoindole], the inhibition at 100 µM was -11 ± 3%.
With `CCCCCCOC(=O)C1COc2ccccc21` (stereo not shown) [S28, C6-dihydrobenzofuran ester] the inhibition at 100 µM was 1.5 ± 8%.
`CCCCCCCCCCCC(=O)O/N=C1\COc2ccccc21` [S29, C12-dihydrobenzofuran acylhydroxylamine] gave an inhibition at 100 µM of 12 ± 3%.
`CCCCCCCCCCCC(=O)Nc1ccc2c(c1)c1ccccc1n2CC` [S30, C12-3-amino-1-ethylcarbazole] gave an inhibition at 100 µM of -1 ± 3%.
For `CCCCCCCCCC(=O)CC(=O)Nc1ccc2c(c1)c1ccccc1n2CC` [S31, 3OC12-3-amino-1-ethylcarbazole], the inhibition at 100 µM was 9.3 ± 4%.
For `CCCCCCCCCCCCNC(=O)c1cc2ccccc2n1C` [S32, C12-2-amido-1-methylindole], the inhibition at 100 µM was -9.2 ± 4%.
`CCCCCCCCCCCCNC(=O)c1c[nH]c2ccccc12` [S33, C12-3-amidoindole] gave an inhibition at 100 µM of 4.4 ± 3%.
Compound `CCCCCCCCCCCCNC(=O)Cc1c[nH]c2ccccc12` [S34, C12-3-(methylamido)indole] has an inhibition at 100 µM of 0.6 ± 4%.
`CCCCCCCCCCCC(=O)Nc1ccc2oc3c(c2c1)CCCC3` [S35, C12-2-amino-tetrahydrodibenzofuran] gave an inhibition at 100 µM of 6.1 ± 4%.

Same assay, conditions: Pseudomonas aeruginosa, PA14, 17 h, read-out: Efficacy (%), Table 3; reduction of pyocyanin vs WT P. aeruginosa PA14: 0% = WT level, 100% = background medium
In the case of `O=C(COc1cccc(Br)c1)Nc1ccnc(F)c1` [S41, 4-amino-2-fluoropyridine-C6-3-bromophenoxyhybrid], the inhibition at 100 µM is reported as 31 ± 6%.
For `COc1cc(NC(=O)CC(=O)COc2cccc(Br)c2)ccn1` [S46, 4-amino-2-methoxypyridine-3OC6-3-bromophenoxyhybrid], the inhibition at 100 µM was 40%.
Work on `O=C(COc1cccc(Br)c1)Nc1ccncn1` [S51, 4-aminopyrimidine-C6-3-bromophenoxyhybrid] yielded an inhibition at 100 µM of 27 ± 7%.
`COc1cc(NC(=O)COc2cccc(Br)c2)ncn1` [S52, 4-amino-6-methoxypyrimidine-C6-3-bromophenoxyhybrid] was tested, and the inhibition at 100 µM was 41%.
`COc1nccc(NC(=O)COc2cccc(Br)c2)n1` [S53, 4-amino-2-methoxypyrimidine-C6-3-bromophenoxyhybrid] gave an inhibition at 100 µM of 16 ± 5%.
Work on `COc1cc(NC(=O)COc2cccc(Br)c2)nc(OC)n1` [S54, 4-amino-2,6-dimethoxypyrimidine-C6-3-bromophenoxyhybrid] yielded an inhibition at 100 µM of 15 ± 7%.
`O=C(COc1cccc(Br)c1)Nc1ccnc(Cl)c1` [S55, 4-amino-2-chloropyridine-C6-3-bromophenoxyhybrid] was tested, and the inhibition at 100 µM was 89%.
`O=C(COc1cccc(Br)c1)Nc1cccc(C(F)(F)F)c1` [S59, 1-amino-3-trifluoromethyl-C6-3-bromophenoxyhybrid] was tested, and the inhibition at 100 µM was 62%.

Same assay, conditions: Table 3; reduction of pyocyanin vs WT P. aeruginosa PA14: 0% = WT level, 100% = background medium
With `O=C(COc1cccc(Br)c1)Nc1ccnc(F)c1` [S40, 4-amino-2-fluoropyridine-C4-3-bromophenoxyhybrid] the “Efficacy (%)” value was 32 ± 4%.
`COc1cc(NC(=O)CC(=O)COc2cccc(Br)c2)ccn1` [S46, 4-amino-2-methoxypyridine-3OC6-3-bromophenoxyhybrid] was tested, and the “Efficacy (%)” value was 40 ± 6%.
`COc1cc(NC(=O)COc2cccc(Br)c2)ncn1` [S52, 4-amino-6-methoxypyrimidine-C6-3-bromophenoxyhybrid] was tested, and the “Efficacy (%)” value was 41 ± 9%.
For `O=C(COc1cccc(Br)c1)Nc1ccnc(Cl)c1` [S55, 4-amino-2-chloropyridine-C6-3-bromophenoxyhybrid], the “Efficacy (%)” value was 89 ± 5%.
`O=C(COc1cccc(Br)c1)Nc1cccc(C(F)(F)F)c1` [S59, 1-amino-3-trifluoromethyl-C6-3-bromophenoxyhybrid] was tested, and the “Efficacy (%)” value was 62 ± 6%.

Same assay, conditions: Table 3; reduction of pyocyanin vs WT P. aeruginosa PA14: 0% = WT level, 100% = background medium; listed as Table 3 entry 6
`COc1cc(NC(=O)COc2cccc(Br)c2)ccn1` [S44, 4-amino-2-methoxypyridine-C5-3-bromophenoxyhybrid] was tested, and the “Efficacy (%)” value was 81%.

Same assay, conditions: Table 3; reduction of pyocyanin vs WT P. aeruginosa PA14: 0% = WT level, 100% = background medium; listed as Table 3 entry 10
`COc1cc(NC(=O)COc2cccc(Br)c2)ccn1` [S50, 4-amino-2-methoxypyridine-C8-3-bromophenoxyhybrid] was tested, and the “Efficacy (%)” value was 60%.

Same assay, conditions: Table 3; reduction of pyocyanin vs WT P. aeruginosa PA14: 0% = WT level, 100% = background medium; listed as Table 3 entry 17
In the case of `O=C(COc1cccc(Br)c1)Nc1ccnc(C(F)(F)F)c1` [S57, 4-amino-2-trifluoromethylpyridine-C5-3-bromophenoxyhybrid], the “Efficacy (%)” value is reported as 95%.

Same assay, conditions: Table 3; reduction of pyocyanin vs WT P. aeruginosa PA14: 0% = WT level, 100% = background medium; listed as drawing 59
`O=C(COc1cccc(Br)c1)Nc1ccncc1` [S37, 4-aminopyridine-C4-3-bromophenoxyhybrid] was tested, and the “Efficacy (%)” value was 21 ± 5%.

Same assay, conditions: Table 3; reduction of pyocyanin vs WT P. aeruginosa PA14: 0% = WT level, 100% = background medium; listed as drawing 60
In the case of `O=C(COc1cccc(Br)c1)Nc1ccncc1` [S39, 4-aminopyridine-C6-3-bromophenoxyhybrid], the “Efficacy (%)” value is reported as 53 ± 1%.

Same assay, conditions: Table 3; reduction of pyocyanin vs WT P. aeruginosa PA14: 0% = WT level, 100% = background medium; listed as drawing 63
For `COc1cc(NC(=O)COc2cccc(Br)c2)ccn1` [S42, 4-amino-2-methoxypyridine-C4-3-bromophenoxyhybrid], the “Efficacy (%)” value was 20 ± 1%.

Same assay, conditions: Table 3; reduction of pyocyanin vs WT P. aeruginosa PA14: 0% = WT level, 100% = background medium; listed as drawing 64
In the case of `COc1cc(NC(=O)COc2cccc(Br)c2)ccn1` [S44, 4-amino-2-methoxypyridine-C5-3-bromophenoxyhybrid], the “Efficacy (%)” value is reported as 81 ± 6%.

Same assay, conditions: Table 3; reduction of pyocyanin vs WT P. aeruginosa PA14: 0% = WT level, 100% = background medium; listed as drawing 68
With `COc1cc(NC(=O)COc2cccc(Br)c2)ccn1` [S50, 4-amino-2-methoxypyridine-C8-3-bromophenoxyhybrid] the “Efficacy (%)” value was 60 ± 2%.

Same assay, conditions: Table 3; reduction of pyocyanin vs WT P. aeruginosa PA14: 0% = WT level, 100% = background medium; listed as drawing 74
For `O=C(COc1cccc(Br)c1)Nc1ccnc(C(F)(F)F)c1` [S56, 4-amino-2-trifluoromethylpyridine-C4-3-bromophenoxyhybrid], the “Efficacy (%)” value was 43 ± 8%.

Same assay, conditions: Table 3; reduction of pyocyanin vs WT P. aeruginosa PA14: 0% = WT level, 100% = background medium; listed as drawing 75
With `O=C(COc1cccc(Br)c1)Nc1ccnc(C(F)(F)F)c1` [S57, 4-amino-2-trifluoromethylpyridine-C5-3-bromophenoxyhybrid] the “Efficacy (%)” value was 95 ± 5%.

Same assay, conditions: Table 3; reduction of pyocyanin vs WT P. aeruginosa PA14: 0% = WT level, 100% = background medium; listed as drawing 77
For `O=C(COc1cccc(Br)c1)Nc1ccnc(C(F)(F)F)c1` [S58, 4-amino-2-trifluoromethylpyridine-C7-3-bromophenoxyhybrid], the “Efficacy (%)” value was 23 ± 7%.

Same assay, conditions: WT P. aeruginosa PA14, 17 hr growth, titration; read-out: IC50 for inhibition of pyocyanin production
Work on `O=C(CCCOc1cccc(Br)c1)N[C@@H]1CCSC1=O` [(R)-mBTL] yielded an IC50 of 100 µM.
With `O=C(CCCOc1cccc(Br)c1)N[C@H]1CCSC1=O` [(S)-mBTL] the IC50 was 4 µM.

Same assay, conditions: wild-type P. aeruginosa PA14; end point assays at 100 μM
`O=C(CCCCOc1cccc(Br)c1)NC1CCSC1=O` (stereo not shown) [5C-mBTL] was tested, and the “inhibition of pyocyanin production (in words)” value was “most effective inhibitor of pyocyanin production”.
In the case of `O=C(CCc1ccc(Br)cc1)N[C@H]1CCOC1=O` [B7, reference compound], the “inhibition of pyocyanin production (in words)” value is reported as “limited or no inhibition”.
